# Laboratory results reported in patent publication US20220265629A1, “TREATMENT OF SYSTOLIC DYSFUNCTION AND HEART FAILURE WITH REDUCED EJECTION FRACTION WITH THE COMPOUND (R)-4-(1-((3-(DIFLUOROMETHYL)-1-METHYL-1H-PYRAZOL-4-YL)SULFONYL)-1-FLUOROETHYL)-N-(ISOXAZOL-3-YL)PIPERIDINE-1-CARBOXAMIDE” (MyoKardia, Inc., priority 2019, published 2022).
# Like-named read-outs stand apart in the source and are kept apart here.
# How the values were obtained:
# [1] = Single ascending oral dose study in healthy volunteers: urinary excretion and renal clearance; type: in vivo, human; settings: for CL renal: human, plasma and urine
# Experimental: The concentrations of Compound I in human plasma and urine were quantitated by high performance liquid chromatography with tandem mass spectrometric detection (LC MS/MS) (Biological sample analysis study report Alturas AD17-726). Plasma samples were extracted by protein precipitation with acetonitrile containing internal standard MYK-5654. The calibration curves were linear over concentration range of 0.500 to 1000 ng/mL with a lower limit of quantification (LLOQ) of 0.500 ng/mL.
# The PK Population included all subjects who received Compound I. Blood samples were collected for PK assessments. The actual timing of the samples may have been modified and/or up to an additional 2 samples may have been requested by the SRC after review of the data from previous cohorts. It was important that PK sampling occurred as closely as possible to the scheduled time (±10%). Both blood and urine samples were used for PK assessments.
# [2] = tested on: healthy subjects; experiment: Single ascending oral dose study in healthy volunteers: safety (AEs, ECG, hs-troponin I); type: in vivo, human
# Experimental: PK and PD data were collected as described herein. […] Changes from Baseline at each postbaseline timepoint were assessed.
# A 12-lead electrocardiogram (ECG) was obtained after the subjects had rested in a supine position for at least 10 minutes. […] Digital 12-lead ECG evaluations was performed after 10 minutes of rest at Screening, preclose on Day 1 (within 2 hours of dosing), and at various predetermined time points. Each time an ECG was completed, a 10-second paper ECG rhythm strip would also be obtained and maintained in the subject's source documentation.
# The ECGs were transmitted to the core ECG laboratory who read the recordings in a blinded manner. An automated methodology was utilized with manual over-reading by a cardiologist. The following intervals were measured: RR, PR, QRS, and QT. Heart rate (HR) was calculated as 60/(RR×1000) (with RR expressed in msec) and rounded to the nearest integer.
# Corrected QT interval (QTc) was calculated using the manually over-read QT values per the standard procedures of the central ECG laboratory. Each individual ECG QT value was corrected for HR. The measured QT data were corrected for HR using the Fridericia correction QTcF and the Bazzett method (QTcB) as per the following formulae/method (with QT, RR and QTc expressed in msec): […]
# Any abnormal findings judged by the investigator to be clinically important were recorded as adverse events (AEs). AEs were mapped to system organ classes (SOCs) and preferred terms (PTs) using the Medical Dictionary for Regulatory Activities (MedDRA). AEs were monitored during the study and the data analyzed with respect to overall incidence, severity, and potential relationship to study medication. The blinded AEs were presented to the SRC for review after each cohort to aid in their decision on the dose of the subsequent cohort or if the study should be terminated. […] No ECG changes or symptoms were noted.
# For the final analysis, the AEs were grouped by treatment group with all of the subjects who received placebo pooled as 1 group. AEs with onset on or after the first dose of study medication, or with an onset before the first dose of study medication that increased in severity on or after the first dose of study medication. Treatment-emergent AEs (defined as AEs starting […]) were summarized for the Safety Analysis Population by MedDRA SOC and PT, and by severity and relationship to treatment. Severe and life-threatening AEs, SAEs, and AEs leading to study withdrawal, if any, were presented in data listings.
# Serum samples were drawn for hs-troponin I. Analyses were performed using the Abbott Architect STAT High Sensitivity Troponin I assay.
# [3] = tested on: healthy volunteers; experiment: Food effect cross-over study, healthy volunteers: safety; type: in vivo, human
# Experimental: ECG was performed as described in Example 1. The following intervals were measured: RR, PR, QRS, and QT. Heart rate (HR) was calculated as 60/(RR×1000) (with RR expressed in msec) and rounded to the nearest integer. Each individual ECG QT value was corrected for HR. The measured QT data was corrected for HR using the Fridericia method (QTcF) as per the following formulae/method (with QT, RR and QTc expressed in ms): […]
# The Investigator or designee monitored the continuous ECG telemetry data and correlated the finding(s) with any other clinical findings, study participant's medical history, study participant's clinical status and laboratory data to determine the clinical importance of the finding.
# Serum troponin-I concentrations were determined as described in Example 1. Abnormal and/or rising troponin values (as per Investigator's judgment and taking into account potential Baseline troponin elevation) led to the subject being clinically evaluated for possible myocardial ischemia. […] The entire clinical context would be evaluated (e.g., signs, symptoms, new ECG changes, new troponin, and CK-MB abnormalities) and correlated with any other relevant clinical findings, the subject's medical history, and laboratory data to determine the clinical significance of the findings.
# [4] = Physicochemical and biopharmaceutical properties of the drug substance (PBPK model input); settings: for blood plasma ratio: blood and plasma
# Excerpt: A PBPK mechanistic absorption model was developed by integrating (1) physicochemical and biopharmaceutical properties obtained from in vitro experimental measurements or in silico estimates based on chemical structure using ADMET Predictor (version 7.2) in GastroPlus (Version 9.6); (2) formulation properties of the drug product such as drug substance particle size distribution, formulation type, and rate of release or dissolution; (3) compartmental model kinetic parameters such as systemic clearance, volume of distribution, and inter-compartmental rate constants; and (4) gut physiology parameters such as gastro-intestinal (GI) transit time, pH, absorptive surface area, compartment dimensions and fluid content. The preexisting physiological parameters in GastroPlus (Version 9.6) for American healthy volunteers and beagle dogs under fasted conditions were used without modification.
# [5] = crystalline free-base drug substance
smiles,measurement,setting,value
"Cn1cc(S(=O)(=O)[C@@](C)(F)C2CCN(C(=O)Nc3ccon3)CC2)c(C(F)F)n1 [Compound I, (R)-4-(1-((3-(difluoromethyl)-1-methyl-1H-pyrazol-4-yl)sulfonyl)-1-fluoroethyl)-N-(isoxazol-3-yl)piperidine-1-carboxamide]",dose recovered in 0-48 hours urine,[1]; 350 mg,approximately 6.0%
same,dose recovered in 0-48 hours urine,[1]; 525 mg,~8.6%
same,CL renal,"[1]; oral, all doses, read-out: renal clearance, mean (converted)",9.5 mL/min
same,CL renal,"[1]; po, 350 mg, 350 mg dose group, read-out: renal clearance, mean (SD) (converted)",5.55 mL/min
same,CL renal,"[1]; po, 525 mg, 525 mg dose group, read-out: renal clearance, mean (SD) (converted)",13.3 mL/min
same,CL renal,"[1]; po, all doses, read-out: renal clearance, individuals range",2.95 to 23.3 mL/min
same,CL renal,"[1]; po, all doses, read-out: renal clearance, mean (converted)",~9.5 mL/min
same,AEs considered related to treatment,[2]; 50 mg dose group (50.0%),3 subjects
same,serious AE,[2]; 100 mg dose group,short duration of complete AV block
same,AEs considered related to treatment,[2]; 350 mg dose group (50.0%),3 subjects
same,hs-troponin I concentration in one subject,"[2]; 525 mg group, 6 hours postdose, upper limit of normal 15 ng/L",16 ng/L
same,ECG or ECG intervals including PR interval,[2]; 3-525 mg,no significant changes
same,vital sign or safety laboratory parameters,[2]; 3-525 mg,no clinically significant changes
same,tolerability,[2]; single doses up to 525 mg,well-tolerated
same,"hs-troponin I, mild increase in one subject",[2]; upper range of normal 15 ng/L,16 ng/L
same,troponin-I,"[3]; 200 mg, fasted or fed state",No increase
same,abnormal ECG results,"[3]; 200 mg, fasted state",3 (30.0%)
same,headache,"[3]; 200 mg, fasted state",4 subjects
same,abnormal ECG results,"[3]; 200 mg, fed state",2 (20.0%)
same,headache,"[3]; 200 mg, fed state",1 subject
same,tolerability,[3]; single dose of 200 mg,well-tolerated
same,Biopharmaceutics Classification System (BCS) class,[4],Class II
same,solubility,"[4]; aqueous buffer, 37° C., across pH 1.2-9.6",~43 µg/mL
same,blood plasma ratio,"[4]; Dog, in vitro measured, read-out: B:P (Dog), ratio of concentration of drug in blood to plasma",0.8
same,blood plasma ratio,"[4]; Human, in vitro measured, read-out: B:P (Human), ratio of concentration of drug in blood to plasma",0.85
same,hygroscopicity,[4]; [5],nonhygroscopic
same,solubility in aqueous media,[4]; [5],practically insoluble
same,Papp,"[4]; human, Caco-2, in vitro measured, read-out: Permeability, Caco-2",17.9 ×10⁻⁶ cm/s
same,logD,"[4]; pH 7.4, Measured",3.07
